From US20070166781A1, “Method for assessing the virulence of pathogens and uses thereof” (priority 2002, published 2007) come the findings set out here.

SMILES strings stand for the structures. Converted amounts (≈) assume the structure as drawn. Like-named read-outs stand apart in the source and are kept apart here.

One may read the MIC as the least concentration at which growth counts as inhibited.

What all share (type): cell-based
Assay [1] deals with P. aeruginosa PT149 (nfxC). The assay is described as follows: MIC in Mueller-Hinton broth by the microdilution method. To be noted: Pseudomonas aeruginosa. As to the method:
(§1) Bacteria were grown overnight at 37° C. on Luria-Bertani (LB) agar. Single colonies were inoculated into 5 ml PB (2% (wt/vol) peptone, 0.3% (wt/vol) MgCl2.6H2O, 1% (wt/vol) K2SO4) (Essar et al., 1990, J. Bacteriol., 172(2), 884-900) in a 50 ml flask and grown at 37° C. for 8 hr prior to use. […] Under these conditions, similar OD600s were obtained for each strain and the induction of quorum sensing was maximal. Minimal Inhibitory Concentrations (MICs) were determined in Mueller-Hinton broth by the microdilution method (Thornsberry et al., 1983 NCCLS, 3, 48-56).
In general terms: Broth dilution looks for growth in wells or tubes with falling amounts of substance.

Assay [2] relates to P. aeruginosa PDO100. The description is as above. To be noted: Pseudomonas aeruginosa. As to the method: as §1
For assay [3], the system named is P. aeruginosa PAO-BI (nfxC). Described as above. To be noted: Pseudomonas aeruginosa. As to the method: as §1
The subject of assay [4] is P. aeruginosa PT648 (nfxB). Described as above. To be noted: Pseudomonas aeruginosa. As to the method:
as §1

The test system of assay [5] is P. aeruginosa PT625 (nalB). The description is as above. To be noted: Pseudomonas aeruginosa. As to the method: as §1
Assay [6] concerns P. aeruginosa PAO1. Described as above. To be noted: Pseudomonas aeruginosa; strain PAO1. As to the method:
as §1

For assay [7], the system named is P. aeruginosa PAO1. The assay is described as follows: Growth of D. discoideum DH1-10 on a lawn of P. aeruginosa PAO1 grown with azithromycin. To be noted: lawn of PAO1, 2 μg/ml azithromycin. As for the experimental part:
Quantitative measurements of D. discoideum growth on a lawn of pure P. aeruginosa were obtained by first plating 200 μl of P. aeruginosa culture on SM-agar. Droplets of 5 μl containing serial dilutions of D. discoideum cells (50.000 cells, 10.000 cells, 2.000, etc.) were then spotted on the bacterial lawn. The plates were incubated for 5 days at 25° C. and the highest dilution at which D. discoideum growth was visible was recorded.
However, in these experiments, Dictyostelium was grown in, the presence of both Klebsiella and Pseudomonas bacteria. […] To obtain more quantitative results, higher numbers of Dictyostelium cells were used to determine how many amoebae would be necessary to create a plaque in a lawn of P. aeruginosa. […] Consequently growth of Dictyostelium on the lasR mutant was scored as 1. On a lawn of the rhlR mutant PT462, amoebal growth could be observed in the first five dilutions of Dictyostelium (FIG. 2C; scored 5). […]
A lawn of P. aeruginosa PAO1 is grown in the presence of 2 μg/ml of azithromycin overnight. The bacterial lawn is then seeded with different dilutions of D. discoideum DH1-10 three days latter and the appearance of D. discoideum DH1-10 colonies is monitored. Growth of colonies of D. discoideum DH1-10 are recorded and scored between 1 and 2 (same scale as FIG. 2) as compared to a score of 0 in the absence of antibiotic.

Where [8] appears, read: strain PT149 (nfxC), read-out: MIC.
Where [9] appears, read: strain PAO-BI (nfxC), read-out: MIC.
Setting [10] is: strain PT648 (nfxB), read-out: MIC.

For `C[C@H]1[C@H](NC(=O)/C(=N\OC(C)(C)C(=O)O)c2csc(N)n2)C(=O)N1S(=O)(=O)O` [Aztreonam], the MIC in assay [1] (setting [8]) was 1 µg/mL (≈ 2.3 µM); in assay [2] (strain PDO100, read-out: MIC), 2 µg/mL (≈ 4.59 µM); in assay [3] (setting [9]), 2 µg/mL (≈ 4.59 µM); in assay [4] (setting [10]), 2 µg/mL (≈ 4.59 µM); in assay [5], 16 µg/mL (≈ 36.7 µM); in assay [6] it was 4 µg/mL (≈ 9.19 µM).
Consider `O=C(N[C@H](CO)[C@H](O)c1ccc([N+](=O)[O-])cc1)C(Cl)Cl` [Chloramphenicol], for which the MIC was found to be 1060 µg/mL (≈ 3290 µM) in assay [1]; 32 µg/mL (≈ 99 µM) in assay [2] (PDO100); 1060 µg/mL (≈ 3290 µM) in assay [3]; 64 µg/mL (≈ 198 µM) in assay [4]; 64 µg/mL (≈ 198 µM) in assay [5]; 32 µg/mL (≈ 99 µM) in assay [6].
Take `C[C@@H](O)[C@H]1C(=O)N2C(C(=O)O)=C(SCCN=CN)C[C@H]12` [Imipenem]: the MIC worked out at 4 µg/mL (≈ 13.4 µM) in assay [1] (setting [8]); 1 µg/mL (≈ 3.34 µM) in assay [2] (strain PDO100, read-out: MIC); 4 µg/mL (≈ 13.4 µM) in assay [3] (setting [9]); 1 µg/mL (≈ 3.34 µM) in assay [4] (setting [10]); 1 µg/mL (≈ 3.34 µM) in assay [5]; 1 µg/mL (≈ 3.34 µM) in assay [6].
`CC[C@H]1OC(=O)[C@H](C)[C@@H](O[C@H]2C[C@@](C)(OC)[C@@H](O)[C@H](C)O2)[C@H](C)[C@@H](O[C@@H]2O[C@H](C)C[C@H](N(C)C)[C@H]2O)[C@](C)(O)C[C@@H](C)CN(C)[C@H](C)[C@@H](O)[C@]1(C)O` [azithromycin, Azithromycin]: in assay [7], the “Growth of colonies of D. discoideum DH1-10 in the presence versus absence of azithromycin” value was “significantly greater”.
With `O=C(O)c1cn(C2CC2)c2cc(N3CCNCC3)c(F)cc2c1=O` [Ciprofloxacin], the MIC in assay [1] (setting [8]) stood at 1 µg/mL (≈ 3.02 µM); in assay [2] (strain PDO100, read-out: MIC), 0.125 µg/mL (≈ 0.377 µM); in assay [3] (setting [9]), 1 µg/mL (≈ 3.02 µM); in assay [4] (setting [10]), 1 µg/mL (≈ 3.02 µM); in assay [5], 0.5 µg/mL (≈ 1.51 µM); in assay [6], 0.125 µg/mL (≈ 0.377 µM).
With `CO/N=C(\C(=O)N[C@@H]1C(=O)N2C(C(=O)[O-])=C(C[n+]3cccc4c3CCC4)CS[C@H]12)c1csc(N)n1` [Cefpirome], the MIC in assay [1] (setting [8]) is 0.5 µg/mL (≈ 0.972 µM); in assay [2] (strain PDO100, read-out: MIC), 2 µg/mL (≈ 3.89 µM); in assay [3] (setting [9]) it was 0.5 µg/mL (≈ 0.972 µM); in assay [4] (setting [10]), 8 µg/mL (≈ 15.5 µM); in assay [5], 4 µg/mL (≈ 7.77 µM); in assay [6] it was 2 µg/mL (≈ 3.89 µM).
